Experimental data reported in patent US3994882A, “Nitrofuran derivatives, process for the preparation thereof and compositions containing same as active ingredient” (Kabushiki Kaisha Ueno Seiyaku Oyo Kenkyujo, priority 1974, dated 1976).
Converted amounts (≈) assume the structure as drawn. Read-outs that look alike come from different tables or passages of the source.

Assays:
[1] = test system: Staphlococcus aureus Kawanabe II; test: Curative effects on Staphlomycosis of fowl (Table 7); assay type: in vivo; details: two weeks, chicks died / chicks tested
Protocol: A culture liquid obtained by cultivation of Staphlococcus aureus Kawanabe II for 20 hours at 37° C. in a heart infusion culture medium was injected intravenously into 3-week-old chicks at the rate of 0.2 ml per chick. Nitrofuran derivatives mixed in amounts indicated below in the feeds were then fed these chicks for two weeks. In the table the expression, "death rate" has the following meaning. For instance, the value 3/9 denotes that three out of the nine chicks submitted to the test died.

Salmonella purollum = test: Minimum growth inhibiting concentration, microorganisms that infect domestic animals (Table 2); assay type: cell-based; details: 42 strains, TSB-Agar, 48 hours
Protocol: (§1) The minimum growth inhibiting concentrations were measured under identical conditions as in the case of Table 1, except that culture media indicated above were used and, in the case of that asterisked, the culture was carried out for 5 days, while the others were cultivated for 48 hours.

Escherichia coli = test: as above; assay type: cell-based; details: 36 strains, TSB-Agar, 48 hours
Protocol: as §1

[2] = test system: Erysiperothrix rhusiopatiae Agata; test: as above; assay type: cell-based; details: TSB-Agar 10% rabbit blood added, 48 hours
Protocol: as §1

[3] = test system: Bordetella bronchiseptica; test: as above; assay type: cell-based; details: 4 strains, Heart infusion Agar, 48 hours
Protocol: as §1

Mycolasma galli-septicum = test: as above; assay type: cell-based; details: 120 h, 6 strains, Hofstad, 5 days
Protocol: as §1

Hemophilus galinalum = test: as above; assay type: cell-based; details: 2 strains, TSB-Agar 10% rabbit blood added, 48 hours
Protocol: as §1

Staphylococcus aureus = test: as above; assay type: cell-based; details: 15 strains, TSB-agar, 48 hours
Protocol: as §1

[4] = test system: Salmonella typhimium K-52; test: Curative action in infected mice (Table 4); assay type: in vivo; details: K52, 168 h, mice infected abdominally, oral in 5% gum arabic, observation one week
Protocol: (§2) Next, in Table 4 are shown the curative actions (ED50 mg/Kg body wt.) and acute toxicities (LD50 mg/kg body wt.) of the typical nitrofuran derivatives of the present invention when used with infected mice.
(§3) Note.- The numerical values in the table denote the amounts per unit body
(§4) weight of the nitrofuran derivatives required for cure when the experimen
(§5) was carried out using mice of body weight of about 20 grams and injecting
(§6) thereinto abdominally the microorganism-containing solutions in amounts o
(§7) 0.2 ml (the microorganism-containing solutions used being those in the
(§8) cases of test microorganisms 1, 3 and 4 in which the microorganism cultur
(§9) liquids were diluted 10^5, 5 and 10^2 times, respectively, and in
(§10) the case of test microorganism 2 that which was concentrated 2 times),
(§11) after which the nitrofuran derivatives suspended in 5% gum arabic were
(§12) forcedly administered orally followed by observation for one week.

[5] = test system: Streptococcus hemolyticus A 089; test: Curative action in infected mice (Table 4); assay type: in vivo; details: Streptococcus pyogenes, A089, 168 h, mice infected abdominally, oral in 5% gum arabic, observation one week
Protocol: as §2, §3, §4, §5, §6, §7, §8, §9, §10, §11, §12

[6] = test system: Staphylococcus aureus 72r; test: Curative action in infected mice (Table 4); assay type: in vivo; details: 168 h, mice infected abdominally, oral in 5% gum arabic, observation one week
Protocol: as §2, §3, §4, §5, §6, §7, §8, §9, §10, §11, §12

Escherichia coli K-74 = test: Curative action in infected mice (Table 4); assay type: in vivo; details: K74, 168 h, mice infected abdominally, oral in 5% gum arabic, observation one week
Protocol: as §2, §3, §4, §5, §6, §7, §8, §9, §10, §11, §12

[7] = Acute toxicity in mice (Table 4); details: mouse, in vivo, po
Protocol: as §2

[8] = test system: Erysiperothrix rhusiopatiae Agata; test: Cure of mice infected with Erysiperothrix rhusiopatiae (Table 5); assay type: in vivo; details: Mus musculus, 168 h, observed 7 days, read-out: ED50 when used with Erysiperothrix rhusiopatiae
Protocol: Mice of body weight about 20 grams were used, and 0.2 ml of a culture liquid obtained by cultivating Erysiperothrix rhusiopatiae Agata for 24 hours at 37° C. in a 10% calf serum TSB added culture medium (amount of inoculated germs 4.0 × 10^7) was injected abdominally.

Bacillus Subtilis PCI219 = test: Minimum growth inhibiting concentration (Table 1); assay type: cell-based; details: TSBI, pH 7.2, 37° C., 48 hours
Protocol: (§13) For information, the minimum growth inhibiting concentration is a value
(§14) concerning microorganisms cultivated in TSBI the pH of which was adjusted
(§15) to 7.2, each bacteria being incubated at 37° C. for 48 hours.

[9] = test system: Streptococcus hemolyticus A 089; test: Minimum growth inhibiting concentration (Table 1); assay type: cell-based; details: Streptococcus pyogenes, A089, TSBI, pH 7.2, 37° C., 48 hours
Protocol: as §13, §14, §15

[10] = test system: Klebsiella pneumoniae ST-101; test: Minimum growth inhibiting concentration (Table 1); assay type: cell-based; details: ST101, TSBI, pH 7.2, 37° C., 48 hours
Protocol: as §13, §14, §15

[11] = test system: Staphylococcus aureus 209P; test: Minimum growth inhibiting concentration (Table 1); assay type: cell-based; details: TSBI, pH 7.2, 37° C., 48 hours
Protocol: as §13, §14, §15

[12] = test system: Salmonella enteritidis 1891; test: Minimum growth inhibiting concentration (Table 1); assay type: cell-based; details: Salmonella enterica, TSBI, pH 7.2, 37° C., 48 hours
Protocol: as §13, §14, §15

Escherichia coli O-55 = test: Minimum growth inhibiting concentration (Table 1); assay type: cell-based; details: O55, TSBI, pH 7.2, 37° C., 48 hours
Protocol: as §13, §14, §15

[13] = test system: Pseudomonas aeruguinosa 347; test: Minimum growth inhibiting concentration (Table 1); assay type: cell-based; details: TSBI, pH 7.2, 37° C., 48 hours
Protocol: as §13, §14, §15

Proteus vulgaris HX-19 = test: Minimum growth inhibiting concentration (Table 1); assay type: cell-based; details: HX19, TSBI, pH 7.2, 37° C., 48 hours
Protocol: as §13, §14, §15

[14] = test system: Diplococcus pneumoniae DP-1; test: Minimum growth inhibiting concentration (Table 1); assay type: cell-based; details: Streptococcus pneumoniae, DP1, TSBI, pH 7.2, 37° C., 48 hours
Protocol: as §13, §14, §15

[15] = test system: Salmonella pullorum chuyu 114; test: Minimum growth inhibiting concentration (Table 1); assay type: cell-based; details: Salmonella enterica, TSBI, pH 7.2, 37° C., 48 hours
Protocol: as §13, §14, §15

vibroid ulcers = test: Medicinal bath of young yellowtail with disease seeming to be vibroid ulcers; assay type: in vivo; details: of 30 fishes; 10 ppm seawater bath 10 minutes; reared further 20 days; untreated group 3 survivors
Protocol: In raising young yellowtail of a body length about 10-15 cm, since a disease seeming to be vibroid ulcers started to appear, 90 of the fishes were collected and divided into three groups. The first group of 30 fishes were reared as heretofore practiced with no change. On the other hand, the second and third groups of 30 fishes were placed for 10 minutes in respectively medicinal baths containing seawater solutions of 10 ppm of the compound of Example 1 ##SPC40##
and the compound of Example 9 ##SPC41##
following which the respective groups of fishes were returned to normal seawater where they were reared for a further 20 days. The number of fishes surviving in the case of the first group was three fishes, whereas in the case of the second and third groups, the numbers of fishes surviving were 26 and 25 fishes, respectively.

Row | SMILES | Death rate ([1]; 50 ppm in feed) | Death rate ([1]; 100 ppm in feed) | Death rate ([1]; 200 ppm in feed) | Death rate ([1]; 400 ppm in feed) | Death rate ([1]; 800 ppm in feed) | MIC (Salmonella purollum) [µg/mL] | MIC (Escherichia coli) [µg/mL] | MIC [2] [µg/mL] | MIC [3] [µg/mL] | MIC (Mycolasma galli-septicum) [µg/mL] | MIC (Hemophilus galinalum) [µg/mL] | MIC (Staphylococcus aureus) [µg/mL] | ED50 [4] [mg/kg] | ED50 [5] [mg/kg] | ED50 [6] [mg/kg] | ED50 (Escherichia coli K-74) [mg/kg] | LD50 [7] [mg/kg] | ED50 ([8]; oral administration) [mg/kg] | ED50 ([8]; sc, subcutaneous injection) [mg/kg] | MIC (Bacillus Subtilis PCI219) [µg/mL] | further results
1 | O=C(NCCO)c1ccc(C=Cc2ccc([N+](=O)[O-])o2)cc1 [Example 1, 2-Para-[2'-(5"-nitro-2"-furyl)-vinyl]-benzoylaminoethanol] | 3/9 | 2/9 | 2/9 | 2/9 | 1/9 | 1.6 to 12.5 (≈ 5.29 to 41.4 µM) | 0.5 to 25 (≈ 1.65 to 82.7 µM) | 0.07 (≈ 0.232 µM) | 25 (≈ 82.7 µM) | 0.1 (≈ 0.331 µM) | 0.04 to 1.5 (≈ 0.132 to 4.96 µM) | 0.2 to 25 (≈ 0.662 to 82.7 µM) | 75 | 8 | 14 | 14 | 1500 | 21.8 | 50 | < 0.19 | MIC [9]: < 0.19 µg/mL; MIC [10]: 3.13 µg/mL (≈ 10.4 µM); MIC [11]: 0.78 µg/mL (≈ 2.58 µM); MIC [12]: 1.56 µg/mL (≈ 5.16 µM); MIC (Escherichia coli O-55): 3.13 µg/mL (≈ 10.4 µM); MIC [13]: 12.5 µg/mL (≈ 41.4 µM); MIC (Proteus vulgaris HX-19): 3.13 µg/mL (≈ 10.4 µM); MIC [14]: 0.78 µg/mL (≈ 2.58 µM); MIC [15]: 3.13 µg/mL (≈ 10.4 µM); Number of fishes surviving (vibroid ulcers): 26 fishes
2 | O=C(NCC(O)CO)c1ccc(C=Cc2ccc([N+](=O)[O-])o2)cc1 (stereo not drawn) [Example 9, 3-Para-[2'-(5"-nitro-2"-furyl)-vinyl]-benzoylamino-1,2-propanediol] | 3/9 | 2/9 | 2/9 | 2/9 | 2/9 | 1.6 to 25 (≈ 4.81 to 75.2 µM) | 0.5 to 12.5 (≈ 1.5 to 37.6 µM) | 0.15 (≈ 0.451 µM) | 25 (≈ 75.2 µM) | 0.2 (≈ 0.602 µM) | 0.1 to 1.5 (≈ 0.301 to 4.51 µM) | 0.2 to 25 (≈ 0.602 to 75.2 µM) | 100 | 15 | 21 | 10 | > 2000 | 25.5 | 42.1 | < 0.19 | MIC [9]: < 0.19 µg/mL; MIC [10]: 6.25 µg/mL (≈ 18.8 µM); MIC [11]: 0.78 µg/mL (≈ 2.35 µM); MIC [12]: 1.56 µg/mL (≈ 4.69 µM); MIC (Escherichia coli O-55): 3.13 µg/mL (≈ 9.42 µM); MIC [13]: > 25 µg/mL; MIC (Proteus vulgaris HX-19): 6.25 µg/mL (≈ 18.8 µM); MIC [14]: < 0.19 µg/mL; MIC [15]: 6.25 µg/mL (≈ 18.8 µM); Number of fishes surviving (vibroid ulcers): 25 fishes
